We go through two molecules from article PMC7339578, “Multiple circulating alkaloids and saponins from intravenous Kang-Ai injection inhibit human cytochrome P450 and UDP-glucuronosyltransferase isozymes: potential drug–drug interactions” (Chinese Medicine, 2020).

Read-outs that look alike come from different tables or passages of the source. A value given as a limit tells only on which side of the number the result lay.

In one data set the target is T1, UGT1A1 (Homo sapiens, UniProt P22309).
T1 sequence (P22309 26-533): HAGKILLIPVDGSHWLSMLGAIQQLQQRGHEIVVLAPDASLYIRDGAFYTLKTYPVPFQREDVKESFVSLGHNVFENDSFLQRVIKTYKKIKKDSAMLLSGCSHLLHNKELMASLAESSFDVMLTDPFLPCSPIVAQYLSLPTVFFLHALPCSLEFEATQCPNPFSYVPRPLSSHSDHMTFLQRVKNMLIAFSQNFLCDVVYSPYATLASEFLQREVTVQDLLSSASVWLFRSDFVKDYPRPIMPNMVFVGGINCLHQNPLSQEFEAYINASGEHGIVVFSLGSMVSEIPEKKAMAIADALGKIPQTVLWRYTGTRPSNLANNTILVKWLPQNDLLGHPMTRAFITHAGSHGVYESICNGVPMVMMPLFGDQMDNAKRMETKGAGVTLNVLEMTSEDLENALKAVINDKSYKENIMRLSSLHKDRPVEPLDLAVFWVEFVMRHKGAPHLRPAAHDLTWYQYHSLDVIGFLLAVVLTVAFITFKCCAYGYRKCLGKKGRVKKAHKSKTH
Briefly: Inhibition of expressed UGT1A1 (probe β-estradiol). The class given is in vitro ADME. As to conditions: mean ± SD of triplicate, unit not given (IC50 classes in μM). Here is the method:
(§1) After centrifugation (13,800g, 10 min), the supernatant (8 μL) was obtained for determination by UHPLC system.
(§2) Similarly, β-estradiol (60 μM), propofol (40 μM) and 4-MU (350 μM) were typically used as the substrates for UGT1A1, 1A9 and 2B7, respectively. After optimization of incubation conditions (Additional file 1: Fig. S2), the protein concentrations for UGT1A1, 1A9, and 2B7 were 0.125, 0.05, and 0.05 mg/mL, respectively.

Another data set concerns the target T2, UGT1A9 (Homo sapiens, UniProt O60656).
T2 sequence (O60656 26-530): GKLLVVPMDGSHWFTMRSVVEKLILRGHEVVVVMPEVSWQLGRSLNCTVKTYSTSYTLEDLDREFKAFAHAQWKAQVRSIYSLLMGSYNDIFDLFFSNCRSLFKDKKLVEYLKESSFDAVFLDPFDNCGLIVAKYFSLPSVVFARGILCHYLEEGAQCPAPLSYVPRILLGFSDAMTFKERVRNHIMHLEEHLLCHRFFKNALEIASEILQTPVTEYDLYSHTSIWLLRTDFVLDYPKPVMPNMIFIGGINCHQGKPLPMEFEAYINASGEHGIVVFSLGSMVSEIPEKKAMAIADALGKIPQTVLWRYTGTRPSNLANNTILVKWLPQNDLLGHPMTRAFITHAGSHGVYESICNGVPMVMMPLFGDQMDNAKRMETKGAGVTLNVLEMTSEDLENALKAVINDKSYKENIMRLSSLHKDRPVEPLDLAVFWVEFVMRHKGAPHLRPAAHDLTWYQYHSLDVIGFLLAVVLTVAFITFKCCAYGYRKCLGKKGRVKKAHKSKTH
Briefly: Inhibition of expressed UGT1A9 (probe propofol). The class given is in vitro ADME. As to conditions: mean ± SD of triplicate, unit not given (IC50 classes in μM). Here is the method: as §1, §2

The next data set has as its system P-gp. On the set-up: method as in PMID 24380838. As to conditions: cited from earlier work.
The next data set deals with T3, UGT2B7 (Homo sapiens, UniProt P16662).
T3 sequence (P16662 24-529): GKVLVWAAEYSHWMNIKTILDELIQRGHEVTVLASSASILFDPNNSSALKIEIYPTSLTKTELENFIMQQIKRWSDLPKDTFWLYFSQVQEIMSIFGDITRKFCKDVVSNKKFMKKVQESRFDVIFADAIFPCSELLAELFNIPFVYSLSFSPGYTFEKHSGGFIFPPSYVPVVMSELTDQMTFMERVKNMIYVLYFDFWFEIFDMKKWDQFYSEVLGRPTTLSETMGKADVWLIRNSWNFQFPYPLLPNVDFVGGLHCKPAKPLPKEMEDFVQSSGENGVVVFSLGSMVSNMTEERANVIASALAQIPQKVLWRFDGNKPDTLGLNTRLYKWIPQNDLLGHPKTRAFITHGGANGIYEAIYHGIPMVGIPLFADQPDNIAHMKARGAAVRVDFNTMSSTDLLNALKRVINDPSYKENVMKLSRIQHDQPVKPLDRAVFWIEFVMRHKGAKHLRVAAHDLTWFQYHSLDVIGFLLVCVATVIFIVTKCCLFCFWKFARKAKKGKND
Briefly: Inhibition of expressed UGT2B7 (probe 4-MU). The format is in vitro ADME. Here is the method:
as §1, §2

Another data set concerns the target T4, CYP2A6 (Homo sapiens, UniProt P11509).
T4 sequence (P11509 1-494): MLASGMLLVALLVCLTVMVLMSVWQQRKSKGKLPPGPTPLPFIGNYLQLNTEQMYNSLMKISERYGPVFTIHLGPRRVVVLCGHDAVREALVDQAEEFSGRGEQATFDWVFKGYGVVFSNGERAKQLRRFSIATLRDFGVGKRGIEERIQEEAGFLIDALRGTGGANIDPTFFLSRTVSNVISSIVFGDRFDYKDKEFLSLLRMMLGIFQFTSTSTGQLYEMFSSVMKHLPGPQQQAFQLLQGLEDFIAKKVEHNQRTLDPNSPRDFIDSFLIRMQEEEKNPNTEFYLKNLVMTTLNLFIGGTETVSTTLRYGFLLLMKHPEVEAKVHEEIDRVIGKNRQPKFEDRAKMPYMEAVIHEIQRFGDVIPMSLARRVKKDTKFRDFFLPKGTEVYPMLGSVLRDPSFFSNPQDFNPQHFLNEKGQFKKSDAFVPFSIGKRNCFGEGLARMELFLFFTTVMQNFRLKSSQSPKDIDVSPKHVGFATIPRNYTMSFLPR
The data set is described as follows: Inhibition of recombinant CYP2A6 (probe coumarin). The format is in vitro ADME. Here is the method: (§3) In this study, phenacetin (100 μM), coumarin (100 μM), bupropion (100 μM), paclitaxel (60 μM), tolbutamide (200 μM), mephenytoin (100 μM), chlorzoxazone (200 μM) and nifedipine (40 μM) have been used as the probe substrates for CYP1A2, 2A6, 2B6, 2C8, 2C9, 2C19, 2E1 and 3A4, respectively.

On the set-up of data set [1]: method as in earlier work. The conditions noted are these: rat plasma; oxymatrine 30 mg/kg intravenously; cited from earlier work.
Another data set addresses CYP3A4 (Homo sapiens, UniProt P08684). Briefly: Inhibition of recombinant CYP3A4 (probe nifedipine). As to conditions: mean ± SD of triplicate, unit not given (IC50 classes in μM). The format is in vitro ADME. The protocol: as §3

Chain of CYP3A4 (P08684 whole entry): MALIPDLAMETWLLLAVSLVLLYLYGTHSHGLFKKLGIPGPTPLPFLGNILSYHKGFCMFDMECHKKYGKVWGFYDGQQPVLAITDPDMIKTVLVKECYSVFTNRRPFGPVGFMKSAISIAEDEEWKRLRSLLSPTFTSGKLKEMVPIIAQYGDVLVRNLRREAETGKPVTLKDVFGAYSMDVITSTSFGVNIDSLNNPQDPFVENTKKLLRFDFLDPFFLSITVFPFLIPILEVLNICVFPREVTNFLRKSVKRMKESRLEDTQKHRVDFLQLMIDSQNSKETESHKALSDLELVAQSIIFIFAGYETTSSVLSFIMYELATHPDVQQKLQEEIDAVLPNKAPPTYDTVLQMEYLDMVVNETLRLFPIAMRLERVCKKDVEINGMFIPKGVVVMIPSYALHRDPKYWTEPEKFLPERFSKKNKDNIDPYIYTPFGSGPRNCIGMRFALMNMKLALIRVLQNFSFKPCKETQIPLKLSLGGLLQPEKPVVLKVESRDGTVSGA

Take `O=C1CCC[C@@H]2[C@H]3CCC[N+]4([O-])CCC[C@@H](CN12)[C@@H]34` (stereo partly shown) [Compound A3, Oxymatrine]: the IC50 (as a rule, the concentration that gives 50% inhibition) was more than 100 µM at UGT1A1 (IC50 towards UGT1A1, recombinant isozyme); more than 100 µM on UGT1A9 (IC50 towards UGT1A9, recombinant isozyme); more than 100 µM against UGT2B7; more than 100 µM on CYP2A6; more than 100 µM at CYP3A4 (IC50 towards CYP3A4, recombinant isozyme). Moreover, the “inhibition of P-gp” value in the data set with P-gp (in vitro and in vivo) is recorded as “did not demonstrate the inhibition of P-gp”. In addition, the “AUC0–12h” value in data set [1] is 16234.27 ng·h/mL. Besides, the CL in data set [1] is 3.10 L/h. Further, the Cmax (usually the maximum level reached in the sampled fluid or tissue) in data set [1] was 32847.57 ng/mL. The t1/2 in data set [1] was 34.2 min.

With `CC(C)(O)[C@@H]1CC[C@](C)([C@H]2[C@@H](O)C[C@@]3(C)[C@@H]4C[C@H](O[C@@H]5O[C@H](CO)[C@@H](O)[C@H](O)[C@H]5O)[C@H]5C(C)(C)[C@@H](O[C@@H]6OC[C@@H](O)[C@H](O)[C@H]6O)CC[C@@]56C[C@@]46CC[C@]23C)O1` [Compound B2, Astragaloside IV], the IC50 on UGT1A1 (recombinant isozyme, read-out: IC50 towards UGT1A1) is more than 100 µM; at UGT1A9 (recombinant isozyme, read-out: IC50 towards UGT1A9), more than 100 µM; on UGT2B7 (recombinant isozyme, mean ± SD of triplicate, unit not given (IC50 classes in μM), read-out: IC50 towards UGT2B7), more than 100 µM; on CYP2A6 (recombinant isozyme, mean ± SD of triplicate, unit not given (IC50 classes in μM), read-out: IC50 towards CYP2A6), more than 100 µM; at CYP3A4 (recombinant isozyme, read-out: IC50 towards CYP3A4), more than 100 µM. Moreover, the inhibition activity with P-gp (MDR1-MDCKII cells, 100 μM) is listed as 8.22%.
